# Results: patent publication US12209087B2, “AKT1 modulators” (Alterome Therapeutics, Inc., priority 2022, dated 2025)
# Target: T1, full length AKT E17K (Homo sapiens, UniProt P31749, E17K)
# T1 construct: host or cells: HEK-293 (ATCC CRL-1573)
# Test: NanoBRET Target Engagement (TE) Assay
# Type: cell-based
# Conditions: competitive tracer displacement in living cells, read-out: AKT1 E17K IC50
# From the text: The NanoBRET™ Target Engagement (TE) Intracellular Kinase Assays are based on the NanoBRET™ System (Promega Corporation), an energy transfer technique designed to measure molecular proximity in living cells. The NanoBRET™ TE Assays measure the apparent affinity of test compounds by competitive displacement of the NanoBRET™ tracer compound, which is a cell permeable molecule engineered to be reversibly bound to a NanoLuc® luciferase-kinase fusion expressed in cells. For compound screening, when a test compound binds to the selected kinase, the BRET signal is attenuated. […] All cells were evaluated for viability prior to transfection and optimization of the transfection was done prior to experimentation. […] Following transfection, cells were washed and resuspended in Opti-MEM. NanoBRET assays were performed in white, 384-well plates (Corning) at a density of […]. All example compounds were prepared as concentrated stock solutions in DMSO (Sigma-Aldrich). Compounds are dissolved in DMSO to make 10 mM stock solution. […] A Labcyte ECHO 550 compound dispenser was used to facilitate compound transfer directly to cells. Cells were equilibrated for 2 hr with energy transfer probes and example compound prior to BRET measurements. […] For target engagement analysis, the energy transfer probes were added to the cells at concentrations optimized for the target in question (AKT E17K). Following compound incubation, NanoBRET NanoGlo Substrate (Promega Cat #N157D) and Extracellular Nanoluc Inhibitor (Promega Cat #N235C) was added according to the manufacturer's recommended protocol, and luminescence was measured on Envision Reader (Perkin Elmer) Multimode Luminometer equipped with 450 nm BPfilter (donor) and 600 nm LPfilter (acceptor), using 0.5 s integration time. Milli-BRET units (mBU) are calculated by multiplying the raw BRET values by 1000. Apparent tracer affinity values (EC50) were determined using the sigmoidal dose-response (variable slope).
# Competitive displacement data were then plotted and data were fit to determine the EC50 value for each example compound.
# T1 sequence (P31749 whole entry E17K): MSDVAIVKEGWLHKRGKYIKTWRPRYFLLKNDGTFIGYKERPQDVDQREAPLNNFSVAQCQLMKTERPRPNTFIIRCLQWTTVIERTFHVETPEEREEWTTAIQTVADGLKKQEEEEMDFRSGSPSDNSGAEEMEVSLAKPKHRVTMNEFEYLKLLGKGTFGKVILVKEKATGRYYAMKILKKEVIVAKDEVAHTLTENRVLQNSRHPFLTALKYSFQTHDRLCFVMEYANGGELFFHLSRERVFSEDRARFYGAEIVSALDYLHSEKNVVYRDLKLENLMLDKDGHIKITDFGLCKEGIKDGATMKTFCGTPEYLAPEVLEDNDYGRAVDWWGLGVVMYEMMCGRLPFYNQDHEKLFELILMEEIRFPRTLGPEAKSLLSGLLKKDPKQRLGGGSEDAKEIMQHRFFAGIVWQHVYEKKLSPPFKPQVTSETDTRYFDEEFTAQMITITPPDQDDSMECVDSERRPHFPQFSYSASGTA
row,SMILES,IC50 [nM]
1,"N#Cc1cccnc1OC1CCN(Cc2ccc(-n3c(-c4cccnc4N)nc4cc(-c5ccccc5)cnc43)cc2)CC1 [Example 12, 2-((1-(4-(2-(2-Aminopyridin-3-yl)-6-phenyl-3H-imidazo[4,5-b]pyridin-3-yl)benzyl)piperidin-4-yl)oxy)nicotinonitrile]",600 to 10000
2,"N#Cc1cc(N2CCN(Cc3ccc(-n4c(-c5cccnc5N)nc5cccnc54)cc3)CC2)ccn1 [Example 13, 4-(4-(4-(2-(2-Aminopyridin-3-yl)-3H-imidazo[4,5-b]pyridin-3-yl)benzyl)piperazin-1-yl)picolinonitrile]",600 to 10000
3,"N#Cc1ccnc(N2CCN(Cc3ccc(-n4c(-c5cccnc5N)nc5cccnc54)cc3)CC2)c1 [Example 17, 2-(4-(4-(2-(2-Aminopyridin-3-yl)-3H-imidazo[4,5-b]pyridin-3-yl)benzyl)piperazin-1-yl)isonicotinonitrile]",600 to 10000
4,"N#Cc1nccc(N2CCN(Cc3ccc(-n4c(-c5cccnc5N)nc5cccnc54)cc3)CC2)n1 [Example 18, 4-(4-(4-(2-(2-Aminopyridin-3-yl)-3H-imidazo[4,5-b]pyridin-3-yl)benzyl)piperazin-1-yl)pyrimidine-2-carbonitrile]",60 to 600
5,"N#Cc1cncc(N2CCN(Cc3ccc(-n4c(-c5cccnc5N)nc5cccnc54)cc3)CC2)n1 [Example 19, 6-(4-(4-(2-(2-Aminopyridin-3-yl)-3H-imidazo[4,5-b]pyridin-3-yl)benzyl)piperazin-1-yl)pyrazine-2-carbonitrile]",600 to 10000
6,"N#Cc1cc(N2CCN(Cc3ccc(-n4c(-c5cccnc5N)nc5cccnc54)cc3)CC2)ncn1 [Example 21, 6-(4-(4-(2-(2-Aminopyridin-3-yl)-3H-imidazo[4,5-b]pyridin-3-yl)benzyl)piperazin-1-yl)pyrimidine-4-carbonitrile]",60 to 600
7,"N#Cc1cc(C(=O)NC2CCN(Cc3ccc(-n4c(-c5cccnc5N)nc5cccnc54)cc3)CC2)ccn1 [Example 23, N-(1-(4-(2-(2-aminopyridin-3-yl)-3H-imidazo[4,5-b]pyridin-3-yl)benzyl)piperidin-4-yl)-2-cyanoisonicotinamide]",600 to 10000
8,"N#Cc1ccc(C(=O)NC2CCN(Cc3ccc(-n4c(-c5cccnc5N)nc5cccnc54)cc3)CC2)cn1 [Example 24, N-(1-(4-(2-(2-Aminopyridin-3-yl)-3H-imidazo[4,5-b]pyridin-3-yl)benzyl)piperidin-4-yl)-6-cyanonicotinamide]",600 to 10000
9,"N#Cc1ccc(C(=O)NC2CCN(Cc3ccc(-n4c(-c5cccnc5N)nc5cccnc54)cc3)CC2)nc1 [Example 25, N-(1-(4-(2-(2-Aminopyridin-3-yl)-3H-imidazo[4,5-b]pyridin-3-yl)benzyl)piperidin-4-yl)-5-cyanopicolinamide]",600 to 10000
10,"N#Cc1ncccc1C(=O)NC1CCN(Cc2ccc(-n3c(-c4cccnc4N)nc4cccnc43)cc2)CC1 [Example 27, N-(1-(4-(2-(2-Aminopyridin-3-yl)-3H-imidazo[4,5-b]pyridin-3-yl)benzyl)piperidin-4-yl)-2-cyanonicotinamide]",600 to 10000
11,"N#Cc1cccnc1C(=O)NC1CCN(Cc2ccc(-n3c(-c4cccnc4N)nc4cccnc43)cc2)CC1 [Example 28, N-(1-(4-(2-(2-Aminopyridin-3-yl)-3H-imidazo[4,5-b]pyridin-3-yl)benzyl)piperidin-4-yl)-3-cyanopicolinamide]",600 to 10000
12,"N#Cc1ccnc(C(=O)NC2CCN(Cc3ccc(-n4c(-c5cccnc5N)nc5cccnc54)cc3)CC2)c1 [Example 31, N-(1-(4-(2-(2-Aminopyridin-3-yl)-3H-imidazo[4,5-b]pyridin-3-yl)benzyl)piperidin-4-yl)-4-cyanopicolinamide]",600 to 10000
13,"N#Cc1cc(C(=O)NC2CCN(Cc3ccc(-n4c(-c5cccnc5N)nc5cccnc54)cc3)CC2)ncn1 [Example 33, N-(1-(4-(2-(2-Aminopyridin-3-yl)-3H-imidazo[4,5-b]pyridin-3-yl)benzyl)piperidin-4-yl)-6-cyanopyrimidine-4-carboxamide]",600 to 10000
14,"N#Cc1nc2cc(C(=O)NC3CCN(Cc4ccc(-n5c(-c6cccnc6N)nc6cccnc65)cc4)CC3)ccc2s1 [Example 34, N-(1-(4-(2-(2-aminopyridin-3-yl)-3H-imidazo[4,5-b]pyridin-3-yl)benzyl)piperidin-4-yl)-2-cyanobenzo[d]thiazole-5-carboxamide]",60 to 600
15,"CC(=O)Nc1cccc(-c2ccc3nc(-c4cccnc4N)n(-c4ccc(CN5CCN(c6ccc(C#N)nc6)CC5)cc4)c3n2)c1 [Example 38, N-(3-(2-(2-Aminopyridin-3-yl)-3-(4-((4-(6-cyanopyridin-3-yl)piperazin-1-yl)methyl)phenyl)-3H-imidazo[4,5-b]pyridin-5-yl)phenyl)acetamide]",60 to 600

# Now from value to compound:
row,IC50 [nM],SMILES
1,600 to 10000,"N#Cc1ccc(N2CCN(Cc3ccc(-n4c(-c5cccnc5N)nc5cccnc54)cc3)CC2)cn1 [Example 14, 5-(4-(4-(2-(2-Aminopyridin-3-yl)-3H-imidazo[4,5-b]pyridin-3-yl)benzyl)piperazin-1-yl)picolinonitrile]"
2,600 to 10000,"N#Cc1cccc(N2CCN(Cc3ccc(-n4c(-c5cccnc5N)nc5cccnc54)cc3)CC2)n1 [Example 15, 6-(4-(4-(2-(2-Aminopyridin-3-yl)-3H-imidazo[4,5-b]pyridin-3-yl)benzyl)piperazin-1-yl)picolinonitrile]"
3,600 to 10000,"N#Cc1cncc(N2CCN(Cc3ccc(-n4c(-c5cccnc5N)nc5cccnc54)cc3)CC2)c1 [Example 16, 5-(4-(4-(2-(2-Aminopyridin-3-yl)-3H-imidazo[4,5-b]pyridin-3-yl)benzyl)piperazin-1-yl)nicotinonitrile]"
4,600 to 10000,"N#Cc1ccnc(N2CCN(Cc3ccc(-n4c(-c5cccnc5N)nc5cccnc54)cc3)CC2)n1 [Example 20, 2-(4-(4-(2-(2-aminopyridin-3-yl)-3H-imidazo[4,5-b]pyridin-3-yl)benzyl)piperazin-1-yl)pyrimidine-4-carbonitrile]"
5,600 to 10000,"N#Cc1cnnc(N2CCN(Cc3ccc(-n4c(-c5cccnc5N)nc5cccnc54)cc3)CC2)c1 [Example 22, 6-(4-(4-(2-(2-Aminopyridin-3-yl)-3H-imidazo[4,5-b]pyridin-3-yl)benzyl)piperazin-1-yl)pyridazine-4-carbonitrile]"
6,600 to 10000,"N#Cc1cncc(C(=O)NC2CCN(Cc3ccc(-n4c(-c5cccnc5N)nc5cccnc54)cc3)CC2)c1 [Example 26, N-(1-(4-(2-(2-aminopyridin-3-yl)-3H-imidazo[4,5-b]pyridin-3-yl)benzyl)piperidin-4-yl)-5-cyanonicotinamide]"
7,600 to 10000,"N#Cc1ccncc1C(=O)NC1CCN(Cc2ccc(-n3c(-c4cccnc4N)nc4cccnc43)cc2)CC1 [Example 29, N-(1-(4-(2-(2-Aminopyridin-3-yl)-3H-imidazo[4,5-b]pyridin-3-yl)benzyl)piperidin-4-yl)-4-cyanonicotinamide]"
8,600 to 10000,"N#Cc1cccc(C(=O)NC2CCN(Cc3ccc(-n4c(-c5cccnc5N)nc5cccnc54)cc3)CC2)n1 [Example 30, N-(1-(4-(2-(2-Aminopyridin-3-yl)-3H-imidazo[4,5-b]pyridin-3-yl)benzyl)piperidin-4-yl)-6-cyanopicolinamide]"
9,60 to 600,"N#Cc1nccc(C(=O)NC2CCN(Cc3ccc(-n4c(-c5cccnc5N)nc5cccnc54)cc3)CC2)n1 [Example 32, N-(1-(4-(2-(2-Aminopyridin-3-yl)-3H-imidazo[4,5-b]pyridin-3-yl)benzyl)piperidin-4-yl)-2-cyanopyrimidine-4-carboxamide]"
10,60 to 600,"N#Cc1nc2cc(F)cc(C(=O)NC3CCN(Cc4ccc(-n5c(-c6cccnc6N)nc6cccnc65)cc4)CC3)c2s1 [Example 35, N-(1-(4-(2-(2-Aminopyridin-3-yl)-3H-imidazo[4,5-b]pyridin-3-yl)benzyl)piperidin-4-yl)-2-cyano-5-fluorobenzo[d]thiazole-7-carboxamide]"
11,600 to 10000,"N#Cc1cnccc1C(=O)NC1CCN(Cc2ccc(-n3c(-c4cccnc4N)nc4cccnc43)cc2)CC1 [Example 36, N-(1-(4-(2-(2-Aminopyridin-3-yl)-3H-imidazo[4,5-b]pyridin-3-yl)benzyl)piperidin-4-yl)-3-cyanoisonicotinamide]"
12,15 to 60,"CC(=O)Nc1cccc(-c2ccc3nc(-c4cccnc4N)n(-c4ccc(CN5CCN(c6ccnc(C#N)c6)CC5)cc4)c3n2)c1 [Example 37, N-(3-(2-(2-Aminopyridin-3-yl)-3-(4-((4-(2-cyanopyridin-4-yl)piperazin-1-yl)methyl)phenyl)-3H-imidazo[4,5-b]pyridin-5-yl)phenyl)acetamide]"
13,60 to 600,"CC(=O)Nc1cccc(-c2ccc3nc(-c4cccnc4N)n(-c4ccc(CN5CCN(c6cccc(C#N)n6)CC5)cc4)c3n2)c1 [Example 39, N-(3-(2-(2-Aminopyridin-3-yl)-3-(4-((4-(6-cyanopyridin-2-yl)piperazin-1-yl)methyl)phenyl)-3H-imidazo[4,5-b]pyridin-5-yl)phenyl)acetamide]"
